Data published in PMC8566587, “Selection for constrained peptides that bind to a single target protein” (Nature Communications, 2021).
Where a SMILES comes first, the peptide text is derived from it.

Legend:
[1] = target: SARS-CoV-2 Spike RBD (RBD296-531) (Severe acute respiratory syndrome coronavirus 2, UniProt P0DTC2); assay: biochemical; type: binding
[2] = cited from earlier work
Source text: The genetic circuit is based on a split intein and σ factor to which the peptide library is fused. This could be used to screen/select libraries of linear peptides or protein domains for binding to the target. Here, we decided to use modified peptides because they have advantages as pharmaceuticals, including more compact structures that are resistant to proteolysis and permeate the mammalian cell membrane. Modified peptides have been approved for the treatment of cancer, inflammation, and infection and increasing numbers are entering all phases of clinical development for diverse indicatio ...

Spike RBD = type: cell-based, SARS-CoV-2

Molecule: CC[C@H](C)[C@H](NC(=O)[C@H]1NC(=O)[C@H](C(C)C)NC(=O)[C@H]([C@@H](C)CC)NC(=O)[C@H](CCC(=O)O)NC(=O)[C@@H](NC(=O)[C@H](Cc2c[nH]c3ccccc23)NC(=O)[C@H](CCC(=O)O)NC(=O)CNC(=O)[C@H](Cc2ccc(O)cc2)NC(=O)[C@H](CCCCN)NC(=O)[C@H](CS)NC(=O)[C@@H](NC(=O)CN)C(C)C)CSC1CC(=O)O)C(=O)O (stereo partly shown) [AMK-1057] (HELM PEPTIDE1{G.V.C.K.Y.G.E.W.C.E.I.V.[O=C(O)CC([C@H](N[*:1])C(=O)[*:2])[*:3]].I}$PEPTIDE1,PEPTIDE1,9:R3-13:R3$$$V2.0)
- Kd [1]: 990 ± 5 nM

Molecule: Enfuvirtide
- proteolysis (in words) [2]: suffers from rapid proteolysis

Molecule: VCKYGEWCEIVEI [Pap2c_1]
- fluorescence output (in words) (Spike RBD): strong fluorescence output
- specificity for Spike RBD as compared to Mdm2* (Spike RBD): 14 fold
